“And” between values parts separate entries of the source, which are not always exact repeats. Equal entries are not always repeated.
Columns and labels:
[1] = Wang Z. Y. 2001; cited from earlier work
[2] = test system: human cervical tumor xenografts; settings: As2O3 pre-treatment in combination with ionizing radiation; Chun 2002; cited from earlier work
[3] = test system: human cervical cancer cells; settings: As2O3 pre-treatment in combination with ionizing radiation; Chun 2002; cited from earlier work
[4] = test system: breast cancer patients with superficial fungating or skin-infiltrating tumors; assay: Assessment of response: topical As2O3 gel plus electron beam radiotherapy; type: in vivo, human; parameters: key to Tumor response: Complete: A complete response was defined as the disappearance of all known skin lesions within radiation fields confirmed by subsequent observation at least 4 weeks apart; Partial: a decrease in the sum of the maximal perpendicular diameters for involved skin area within radiation fields by more than 50%; Progressive: at least 25% increase in the sum of the maximal perpendicular diameters for involved skin area or the appearance of new lesions within radiation fields; Stable: All other tumor outcomes were classified as stable disease; settings: for Reduction in VAS for skin pain: 100-mm scale
From the text: (§1) Between December 2001 and March 2003, seven patients of breast cancer with superficial fungating or skin-infiltrating tumors who had undergone standard treatments received topical As2O3 and radiotherapy at Mackay Memorial Hospital (Table 3). Eligibility criteria for the study included diagnosis of breast cancer confirmed by pathological examination. In addition, patients had to have relapsed after standard treatments such as surgery, radiation therapy or chemotherapy. Six patients had received post-operative radiation to the chest wall and axillary area. Written informed consent was required, and the study protocol was viewed and approved by the institutional review board of the Mackay Memorial Hospital.
(§2) As2O3 gel prepared by Example 2 was administered in daily topical doses that ranged from 0.01 to 0.5 mg/cm2/day, preferred from 0.05-0.15 mg/cm2/day. The gel was administered 1 h prior to the daily radiation treatment and was subsequently removed 5 min prior to the radiation exposure. Electron beam radiotherapy was delivered using a linear accelerator (9-12 MeV, dose rate 2.4 Gy/min; Clinac 1800; Varian Associates, Palo Alto, Calif.). Radiation was administered 5 days a week (total dose: 50 Gy in 25 fractions or 30 Gy in 10 fractions).
Observation for tumor response and skin reaction was conducted daily, with photographs taken weekly. A complete response was defined as the disappearance of all known skin lesions within radiation fields confirmed by subsequent observation at least 4 weeks apart. A partial response was defined as a decrease in the sum of the maximal perpendicular diameters for involved skin area within radiation fields by more than 50% which was confirmed by subsequent observation at least 4 weeks apart. Progressive disease was defined as at least 25% increase in the sum of the maximal perpendicular diameters for involved skin area or the appearance of new lesions within radiation fields. All other tumor outcomes were classified as stable disease. For efficacy of pain control, chest wall pain was estimated using a visual analog scale (VAS) as a subjective assessment. The VAS scores before treatment were set as the baseline for every patient, and we compared the changes between subsequent data after treatment and the baseline data. When differences were greater than 50 mm in a 100-mm scale, we identified this patient as a responder. The daily need for changing dressings (CD) of wounds was also recorded by nurses in charge of each patient.

[5] = test system: cutaneous metastatic breast cancer; settings: topical As2O3 alone; Cheng 2003; cited from earlier work
[6] = test system: breast cancer patients with superficial fungating or skin-infiltrating tumors; assay: Monitoring for adverse effects (CTC version 2.0) during combined topical As2O3 and radiation treatment; type: in vivo, human; settings: for Acute radiation dermatitis, case number / Anorexia, case number / Chronic radiation dermatitis, case number / Fatigue, case number / Granulocytosis, case number / Hyperpigmentation, case number / Leukopenia, case number / Nausea, case number / Thrombocytopenia, case number / Vomit, case number: of 7 patients, topical As2O3 + radiation
From the text: as §1, §2
With regard to drug absorption via skin, possible systemic adverse effects were evaluated. Serial blood counts and serum chemistry profiles were performed. Serum chemistry profiles, including alanine aminotransferase, aspartate aminotransferase, blood urine nitrogen and creatinine, were measured using a Synchron LX20 spectrophotometer (Beckman Coulter, San Diego, Calif.). An electrocardiogram was recorded before and after irradiation for each patient. Adverse effect and toxicity were evaluated according to the Common Toxicity Criteria (CTC) version 2.0 published by the DCTD, NCI, NIH and DHHS in 1999.

[7] = combination of topical As2O3 and radiation, pilot study, seven patients
[8] = patient 1, skin infiltration, topical As2O3 gel + radiation 50 Gy
[9] = patient 2, skin infiltration, topical As2O3 gel + radiation 50 Gy
[10] = patient 3, skin infiltration, topical As2O3 gel + radiation 50 Gy
[11] = patient 4, fungating tumor, topical As2O3 gel + radiation 50 Gy
[12] = patient 5, fungating tumor, topical As2O3 gel + radiation 50 Gy
[13] = patient 6, fungating tumor, topical As2O3 gel + radiation 30 Gy
[14] = patient 7, fungating tumor, topical As2O3 gel + radiation 50 Gy

For `S1[As]2S[As]3S[As]2S[As]13` [As4S4, tetraarsenic tetraslfide], the Complete remission rate [1] is given as 84.9%.

In the case of arsenic trioxide [As2O3], the “Effect on regression of established xenografts” value [2] is listed as “synergistic effect”, the “Effect on decreased clonogenic survival” value [3] is listed as “synergistic effect” and the “Change in mean daily needed CD frequency” value ([4]; after treatment for 1 month, all superficial and fungating wounds) is listed as 4.4 to 0.9. For the same compound, the “Number of patients resistant, classified as stable disease” value ([4]; chest wall fungating tumor, of seven patients, combined therapy) was “One”, the “Number of patients with partial remission” value ([4]; chest wall fungating tumors, of seven patients, combined therapy) was “three” and the “Number of patients with complete remission” value ([4]; chest wall skin-infiltrating lesions, of seven patients, combined therapy) was “three”. For the same compound, the “Clinical response rate, complete remission” value [4, 7] was 42.9%, the “Clinical response rate, partial remission” value [4, 7] was 42.9% and the “Number of patients with relief of chest wall pain assessed by VAS” value ([4]; of seven patients, combined therapy) was “seven”. For the same compound, the Tumor response [4, 8] was “Complete”, the “Reduction in VAS for skin pain” value [4, 8] was 75 mm and the Tumor response [4, 9] was “Complete”. For the same compound, the “Reduction in VAS for skin pain” value [4, 9] was 65 mm, the Tumor response [4, 10] was “Complete” and the “Reduction in VAS for skin pain” value [4, 10] was 80 mm. The Tumor response [4, 11] was “Partial (a decrease in the sum of the maximal perpendicular diameters for involved skin area within radiation fields by more than 50%)”, the “Reduction in VAS for skin pain” value [4, 11] was 70 mm and the Tumor response [4, 12] was “Partial (a decrease in the sum of the maximal perpendicular diameters for involved skin area within radiation fields by more than 50%)”. For the same compound, the “Reduction in VAS for skin pain” value [4, 12] was 65 mm, the Tumor response [4, 13] was “Partial (a decrease in the sum of the maximal perpendicular diameters for involved skin area within radiation fields by more than 50%)” and the “Reduction in VAS for skin pain” value [4, 13] was 75 mm. The Tumor response [4, 14] was “Stable”, the “Reduction in VAS for skin pain” value [4, 14] was 55 mm and the “Cumulative radiation dosage for remission of chest wall skin lesions” value ([4]; the three patients with complete remission, respectively) was 20 Gy and 22 Gy and 28 Gy. For the same compound, the “Local tumor control and wound secretion” value [5] was “improved local tumor control and decreased wound secretion”, the “Systemic absorption, pharmacokinetic study” value [5] was “no significant systemic absorption” and the “Systemic or local adverse effects” value [5] was “without significant systemic or local adverse effects”. For the same compound, the “Acute radiation dermatitis, case number” value ([6]; CTC grade 0) was 1, the “Anorexia, case number” value ([6]; CTC grade 0) was 4 and the “Chronic radiation dermatitis, case number” value ([6]; CTC grade 0) was 4. The “Fatigue, case number” value ([6]; CTC grade 0) was 3, the “Granulocytosis, case number” value ([6]; CTC grade 0) was 6 and the “Hyperpigmentation, case number” value ([6]; CTC grade 0) was 7. The “Leukopenia, case number” value ([6]; CTC grade 0) was 7, the “Nausea, case number” value ([6]; CTC grade 0) was 4 and the “Thrombocytopenia, case number” value ([6]; CTC grade 0) was 7. For the same compound, the “Vomit, case number” value ([6]; CTC grade 0) was 6, the “Acute radiation dermatitis, case number” value ([6]; CTC grade 1) was 1 and the “Anorexia, case number” value ([6]; CTC grade 1) was 2. The “Chronic radiation dermatitis, case number” value ([6]; CTC grade 1) was 2, the “Fatigue, case number” value ([6]; CTC grade 1) was 2 and the “Granulocytosis, case number” value ([6]; CTC grade 1) was 1. The “Hyperpigmentation, case number” value ([6]; CTC grade 1) was 0, the “Leukopenia, case number” value ([6]; CTC grade 1) was 0 and the “Nausea, case number” value ([6]; CTC grade 1) was 2. The “Thrombocytopenia, case number” value ([6]; CTC grade 1) was 0, the “Vomit, case number” value ([6]; CTC grade 1) was 1 and the “Acute radiation dermatitis, case number” value ([6]; CTC grade 2) was 3. For the same compound, the “Anorexia, case number” value ([6]; CTC grade 2) was 1, the “Chronic radiation dermatitis, case number” value ([6]; CTC grade 2) was 1 and the “Fatigue, case number” value ([6]; CTC grade 2) was 2. For the same compound, the “Granulocytosis, case number” value ([6]; CTC grade 2) was 0, the “Hyperpigmentation, case number” value ([6]; CTC grade 2) was 0 and the “Leukopenia, case number” value ([6]; CTC grade 2) was 0. For the same compound, the “Nausea, case number” value ([6]; CTC grade 2) was 1, the “Thrombocytopenia, case number” value ([6]; CTC grade 2) was 0 and the “Vomit, case number” value ([6]; CTC grade 2) was 0. For the same compound, the “Acute radiation dermatitis, case number” value ([6]; CTC grade 3) was 2, the “Anorexia, case number” value ([6]; CTC grade 3) was 0 and the “Chronic radiation dermatitis, case number” value ([6]; CTC grade 3) was 0. For the same compound, the “Fatigue, case number” value ([6]; CTC grade 3) was 0, the “Granulocytosis, case number” value ([6]; CTC grade 3) was 0 and the “Leukopenia, case number” value ([6]; CTC grade 3) was 0. The “Nausea, case number” value ([6]; CTC grade 3) was 0, the “Thrombocytopenia, case number” value ([6]; CTC grade 3) was 0 and the “Vomit, case number” value ([6]; CTC grade 3) was 0. For the same compound, the “Acute radiation dermatitis, case number” value ([6]; CTC grade 4) was 0, the “Anorexia, case number” value ([6]; CTC grade 4) was 0 and the “Chronic radiation dermatitis, case number” value ([6]; CTC grade 4) was 0. The “Fatigue, case number” value ([6]; CTC grade 4) was 0, the “Granulocytosis, case number” value ([6]; CTC grade 4) was 0 and the “Leukopenia, case number” value ([6]; CTC grade 4) was 0. The “Thrombocytopenia, case number” value ([6]; CTC grade 4) was 0, the “Vomit, case number” value ([6]; CTC grade 4) was 0 and the “Time to satisfactory healing of grade 3 acute radiation dermatitis” value ([6]; after completion of the radiation treatment) was 2-3 weeks. The Hematological changes ([6]; combined treatment) was “no significant hematological changes were observed”, the “Number of patients with grade 3 acute radiation dermatitis (most severe observed)” value ([6]; combined treatment) was “two” and the Other adverse reactions ([6]; combined treatment) was “light-headedness during irradiation and moderate fatigue after radiation”. The “Patients developing grade 3 chronic radiation dermatitis” value ([6]; combined treatment) was “none”, the Performance status ([6]; combined treatment) was “no changes in performance status were evident” and the “Dermatological toxicity such as skin rash” value ([6]; daily application less than 1 h, treatment not more than 5 weeks) was “we did not note any toxicity of this type”. For the same compound, the “Grade 2-4 granulocytosis or leukopenia” value ([6]; during the combined therapy) was “No grade 2-4 granulocytosis or leukopenia was noted” and the “Skin pigmentation, renal or hepatic function” value ([6]; during the course of the combined treatment) was “no skin pigmentation or significant changes in renal or hepatic function”.

From patent US20050208149A1, “Use of arsenic-containing pharmaceutical composition in combination with radiation therapy for cancer treatment” (TTY Biopharm Limited Company, priority 2004, published 2005)
